# From US20130023504A1, “Modulation of Prostaglandin/Cyclooxygenase Metabolic Pathways” (HUNTER-FLEMING LIMITED, priority 2006, published 2013)
# Marks after values point to notes of the source that are not given here.
# Legend:
# Format in all cases: cell-based
# Conditions in all cases: without TNF-α
# human PBMC = assay: PG levels (PGE2, PGD2, 15d-PGJ2) in culture medium of human PBMC cultured with and without TNF-α, EIA (Example 3)
# Method: (§1) Whole blood was collected from donors in EDTA-supplemented pouches at the Etablissement Français du Sang (Brest, France). The PBMC were isolated then from whole blood under sterile conditions within 36 hours after collection. Gradient density centrifugation was carried out on Ficoll (Eurobio). After washing in RPMI 1640 medium (Eurobio), cells were suspended in RPMI 1640 medium supplemented with 10% heat-inactivated fetal calf serum (Eurobio), 2 mM glutamine (D. Dutscher), 100 U of penicillin/ml (D. Dutscher), and 100 μg of streptomycin/ml (D. Dutscher). Monocytes were selected by plastic adherence for 1 h and approximately 10^7 cells were plated in 6-well tissue culture plates (3 mL medium per well). All incubations were performed in a humidified incubator at 37° C. and 5% CO2. Cells were recovered and dispersed in 2 ml fresh incubation medium supplemented with either 7β-hydroxyEPIA, 7β-hydroxy-DHEA, or 7α-hydroxy-DHEA (in 20 μL ethanol) in the presence or absence of 0.01 μg/mL TNF-α (Sigma-Aldrich). Control incubations contained 20 μl ethanol but no steroid. Supernatants were collected after 4 h and 24 hours incubations for measurement of their PG contents and cells were used for subsequent RNA isolation. A single step extraction method using the Trizol Reagent (Invitrogen, Cergy-Pontoise, France) provided total RNA.
# Commercially available EIA kits were used for the determination of PGE2 levels (Oxford Biomedical Research, UK) and 15d-PGJ2 levels (Assay designs, Euromedex, France) in culture media. Measurement of PGD2 levels was obtained using the prostaglandin D2-MOX EIA kit (Cayman Chemical, Euromedex). In this case, and prior to assay, the fresh samples were immediately treated with the MOX-HCl reagent, which converted PGD2 into PGD2-MOX, thus preventing any further chemical degradation.
# (§2) All assays were carried out in triplicate and results were plotted as mean±S.E.M. One-way analysis of variance was performed followed by Duncan's multiple range tests in order to compare the differences between groups. Differences were considered statistically significant when p<0.05.
# COX-2 mRNA = COX-2 mRNA in human PBMC with and without TNF-α, quantitative RT-PCR
# Method: as §1
# (§3) cDNAs were synthesized from TURBO DNase I—treated RNA (Ambion, Huntingdon, UK) using the Superscript first strand synthesis system kit (Invitrogen). RT-PCR amplification mixtures (50 μL) contained 2.5× RealMaster Mix/20×SYBR solution (11.25 μL) (Eppendorf, Le Pecq, France) and 200 nM forward and reverse primers. Reactions were run on a RealPlex ep gradient S mastercycler (Eppendorf). The cycling conditions were 10 minutes at 95° C. and 45 cycles at 95° C., 55° C. and 68° C. for 15 seconds, 30 seconds and 30 seconds, respectively. Each assay included a standard curve of four serial dilution points of control cDNA. The HPRT1 housekeeping gene was used for quantification. All oligonucleotide primers (Table 2) were synthesized by Genecust/Distribio (Evry, France). The specificity of the amplified product was monitored by examining the melting curve of the product and confirmed by analysis on agarose gel electrophoresis.
# as §2
# m-PGES1 mRNA = m-PGES1 mRNA in human PBMC with and without TNF-α, quantitative RT-PCR
# Method: as §1, §3, §2
smiles,measurement,setting,value
CC12CCC3C(C1CCC2=O)[C@@H](O)C=C1C[C@@H](O)CCC13C (stereo partly drawn) [7β-hydroxy-DHEA],15d-PGJ2,"human PBMC; 1 nM, 4 h",0.45 ± 0.016 ng/mL
same,PGD2,"human PBMC; 1 nM, 4 h",0.18 ± 0.002 ng/mL
same,PGE2,"human PBMC; 1 nM, 4 h",0.22 ± 0.003 ng/mL
same,15d-PGJ2,"human PBMC; 1 nM, 24 h",0.66 ± 0.013^a ng/mL
same,PGD2,"human PBMC; 1 nM, 24 h",0.21 ± 0.009^a ng/mL
same,PGE2,"human PBMC; 1 nM, 24 h",0.22 ± 0.003 ng/mL
same,15d-PGJ2,"human PBMC; 10 nM, 4 h",0.40 ± 0.014 ng/mL
same,PGD2,"human PBMC; 10 nM, 4 h",0.14 ± 0.001 ng/mL
same,PGE2,"human PBMC; 10 nM, 4 h",0.22 ± 0.013 ng/mL
same,15d-PGJ2,"human PBMC; 10 nM, 24 h",0.62 ± 0.008^a ng/mL
same,PGD2,"human PBMC; 10 nM, 24 h",0.24 ± 0.001^a ng/mL
same,PGE2,"human PBMC; 10 nM, 24 h",0.24 ± 0.002 ng/mL
same,15d-PGJ2,"human PBMC; 100 nM, 4 h",0.42 ± 0.030 ng/mL
same,PGD2,"human PBMC; 100 nM, 4 h",0.19 ± 0.008 ng/mL
same,PGE2,"human PBMC; 100 nM, 4 h",0.22 ± 0.002 ng/mL
same,15d-PGJ2,"human PBMC; 100 nM, 24 h",0.56 ± 0.020^a ng/mL
same,PGD2,"human PBMC; 100 nM, 24 h",0.34 ± 0.025^a ng/mL
same,PGE2,"human PBMC; 100 nM, 24 h",0.24 ± 0.004 ng/mL
same,"COX-2 (mRNA), mRNA production relative to controls","COX-2 mRNA; 1 nM, 4 h",1.20 ± 0.179
same,"COX-2 (mRNA), mRNA production relative to controls","COX-2 mRNA; 1 nM, 24 h",1.76 ± 0.672
same,"COX-2 (mRNA), mRNA production relative to controls","COX-2 mRNA; 10 nM, 4 h",1.33 ± 0.039
same,"COX-2 (mRNA), mRNA production relative to controls","COX-2 mRNA; 10 nM, 24 h",1.54 ± 0.630
same,"COX-2 (mRNA), mRNA production relative to controls","COX-2 mRNA; 100 nM, 4 h",5.09 ± 1.166^a
same,"COX-2 (mRNA), mRNA production relative to controls","COX-2 mRNA; 100 nM, 24 h",2.78 ± 0.580^a
same,"mPGES1 (mRNA), mRNA production relative to controls","m-PGES1 mRNA; 1 nM, 4 h",0.43 ± 0.057^b
same,"mPGES1 (mRNA), mRNA production relative to controls","m-PGES1 mRNA; 1 nM, 24 h",1.94 ± 0.422^a
same,"mPGES1 (mRNA), mRNA production relative to controls","m-PGES1 mRNA; 10 nM, 4 h",0.67 ± 0.071^b
same,"mPGES1 (mRNA), mRNA production relative to controls","m-PGES1 mRNA; 10 nM, 24 h",1.64 ± 0.338^a
same,"mPGES1 (mRNA), mRNA production relative to controls","m-PGES1 mRNA; 100 nM, 4 h",0.82 ± 0.085^b
same,"mPGES1 (mRNA), mRNA production relative to controls","m-PGES1 mRNA; 100 nM, 24 h",1.64 ± 0.322^a
